Publication PMC5986547 (Heliyon, 2018)
Where two headings read alike, the source gives them in different places.

Key:
[1] = molecular target: T1, hNET (Homo sapiens, UniProt P23975); assay: Reuptake inhibition assay, [3H]NE, plated hNET-HEK293 cells; format: cell-based
[2] = molecular target: T1, hNET; details: read-out: IC50, reuptake inhibition, hNET-HEK293 cells; mean ± S.E.M.; cell suspensions; cited from earlier work
[3] = molecular target: T2, rNET (Rattus norvegicus, UniProt Q63380); details: read-out: Ki, reuptake inhibition, rNET, synaptosomes; cited from earlier work
T2 sequence (Q63380 1-617): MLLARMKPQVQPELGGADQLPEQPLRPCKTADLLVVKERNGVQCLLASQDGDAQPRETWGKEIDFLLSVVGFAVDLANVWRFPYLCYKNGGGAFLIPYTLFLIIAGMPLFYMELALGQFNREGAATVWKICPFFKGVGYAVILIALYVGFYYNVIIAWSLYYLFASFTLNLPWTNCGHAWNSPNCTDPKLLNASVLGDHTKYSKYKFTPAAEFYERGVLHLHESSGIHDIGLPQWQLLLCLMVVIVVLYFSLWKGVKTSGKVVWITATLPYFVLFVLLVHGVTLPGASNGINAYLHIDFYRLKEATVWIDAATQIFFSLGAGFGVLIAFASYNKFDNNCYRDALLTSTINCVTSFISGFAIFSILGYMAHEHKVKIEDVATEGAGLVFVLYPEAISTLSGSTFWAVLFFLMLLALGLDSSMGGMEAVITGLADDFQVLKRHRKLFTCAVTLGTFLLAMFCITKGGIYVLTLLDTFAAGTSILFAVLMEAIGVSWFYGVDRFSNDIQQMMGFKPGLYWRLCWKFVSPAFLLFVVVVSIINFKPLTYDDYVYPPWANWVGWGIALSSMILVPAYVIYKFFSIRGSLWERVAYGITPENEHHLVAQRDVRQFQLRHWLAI

[4] = molecular target: T1, hNET; format: cell-based
[5] = molecular target: T2, rNET; format: biochemical; details: read-out: IC50, rNET, synaptosomes (in parentheses, converted from Ki)
[6] = tested on: SK-N-BE(2)C cells; assay: Uptake kinetics of [3H]NE by adherent SK-N-BE; format: cell-based, human; details: RT, 24-well plates, 163 μg of protein/well, mean ± S.E.M., N = 3

T1 sequence (P23975 whole entry): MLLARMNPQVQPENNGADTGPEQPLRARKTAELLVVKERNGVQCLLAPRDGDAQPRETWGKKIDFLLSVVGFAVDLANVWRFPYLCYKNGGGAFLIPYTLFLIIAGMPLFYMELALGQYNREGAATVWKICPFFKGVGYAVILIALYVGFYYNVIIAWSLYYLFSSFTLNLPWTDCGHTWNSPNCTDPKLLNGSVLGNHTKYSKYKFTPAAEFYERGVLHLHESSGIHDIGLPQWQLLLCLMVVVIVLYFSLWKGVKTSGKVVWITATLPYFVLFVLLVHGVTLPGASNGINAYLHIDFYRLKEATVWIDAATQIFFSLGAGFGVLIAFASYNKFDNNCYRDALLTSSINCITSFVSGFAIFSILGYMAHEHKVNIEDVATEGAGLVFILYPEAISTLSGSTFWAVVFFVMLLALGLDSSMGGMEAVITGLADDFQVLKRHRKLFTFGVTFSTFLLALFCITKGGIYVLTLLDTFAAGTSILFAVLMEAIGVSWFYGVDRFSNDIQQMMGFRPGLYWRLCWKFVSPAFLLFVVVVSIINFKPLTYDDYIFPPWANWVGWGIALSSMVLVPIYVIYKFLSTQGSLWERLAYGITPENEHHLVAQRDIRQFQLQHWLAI

Fc1ccc(C(OCCN2CCN(CCCc3ccccc3)CC2)c2ccc(F)cc2)cc1 [GBR12909]
activity in hNET-HEK293 cells, in words [1]: inactive

c1ccc(CCCN2CCN(CCOC(c3ccccc3)c3ccccc3)CC2)cc1 [GBR12935]
IC50 [2]: 235 ± 53 nM | Ki [3]: 277 nM | fold less potent in SK-N-BE(2)C cells than in hNET-HEK293 cells [4]: 14.8 fold | fold less potent in SK-N-BE(2)C cells than in rat brain synaptosomes [4]: 11.6 fold | IC50 ([4]; read-out: IC50, reuptake inhibition, hNET, SK-N-BE(2)C cells): 3470 ± 150 nM | IC50 [5]: 299 nM

COC(=O)[C@H]1C(c2ccc(I)cc2)C[C@@H]2CC[C@H]1N2C (stereo partly shown) [RTI-55]
IC50 [2]: 2.63 ± 0.76 nM | fold less potent in SK-N-BE(2)C cells than in rat brain synaptosomes ([4]; ratio of IC50 values): 6 fold | fold less potent in SK-N-BE(2)C cells than in hNET-HEK293 cells ([4]; ratio of IC50 values, hNET-HEK293 data of ref 8): 14.4 fold

CN1[C@H]2CC[C@@H]1[C@@H](C(=O)N1CCCC1)[C@@H](c1ccc(I)cc1)C2 [RTI-229]
fold less potent in SK-N-BE(2)C cells than in rat brain synaptosomes ([4]; ratio of IC50 values): 38 fold

[3H][C@](O)(CN)c1ccc(O)c(O)c1 [[^3H]NE, [^3H]norepinephrine]
VMAX of [3H]NE uptake [6]: 195 ± 13 fmol radioactivity/mg protein/min

NC[C@H](O)c1ccc(O)c(O)c1 [[^3H]NE, [^3H]norepinephrine]
Km ([6]; read-out: KM of [3H]NE uptake): 0.416 µM
